Data from ChEMBL document CHEMBL5154835, “Design, synthesis and biological evaluation of sulfonamides inhibitors of XPO1 displaying activity against multiple myeloma cells” (Eur J Med Chem, 2022).

What was measured:
Format in all cases: functional, cell-based
MM1.S = assay: Antiproliferative activity against human MM1.S cells assessed as inhibition of cell growth incubated for 4 hrs by CCK-8 assay
[1] = Antiproliferative activity against human VAL cells assessed as inhibition of cell growth incubated for 4 hrs by CCK-8 assay
[2] = Antiproliferative activity against human Rael cells assessed as inhibition of cell growth incubated for 4 hrs by CCK-8 assay
[3] = Antiproliferative activity against human Mutu-1 cells assessed as inhibition of cell growth incubated for 4 hrs by CCK-8 assay; settings: Mutu-1, 4 h
YT = assay: Antiproliferative activity against human YT cells assessed as inhibition of cell growth incubated for 4 hrs by CCK-8 assay
H9 = assay: Antiproliferative activity against human H9 cells assessed as inhibition of cell growth incubated for 4 hrs by CCK-8 assay; settings: H9, 4 h
[4] = Antiproliferative activity against human MINO cells assessed as inhibition of cell growth incubated for 4 hrs by CCK-8 assay
[5] = Antiproliferative activity against human JB-6 cells assessed as inhibition of cell growth incubated for 4 hrs by CCK-8 assay; settings: JB6, 4 h
NAMALVA = assay: Antiproliferative activity against human NAMALVA cells assessed as inhibition of cell growth incubated for 4 hrs by CCK-8 assay

| SMILES | IC50 (MM1.S) | other results |
| --- | --- | --- |
| CS(=O)(=O)Nc1ccc(/C(=C\n2cnc(-c3cc(C(F)(F)F)cc(C(F)(F)F)c3)n2)C(N)=O)cc1C(F)(F)F | 845 nM |  |
| COc1ccc(/C(=C\n2cnc(-c3cc(C(F)(F)F)cc(C(F)(F)F)c3)n2)C(N)=O)c(F)c1F | 1200 nM |  |
| NC(=O)/C(=C/n1cnc(-c2cc(C(F)(F)F)cc(C(F)(F)F)c2)n1)c1ccc(F)nc1F | 667 nM |  |
| CN(c1ccc(/C(=C\n2cnc(-c3cc(C(F)(F)F)cc(C(F)(F)F)c3)n2)C(N)=O)cc1)S(C)(=O)=O | 446 nM |  |
| CN(C)C(=O)/C(=C/n1cnc(-c2cc(C(F)(F)F)cc(C(F)(F)F)c2)n1)c1ccc(NS(C)(=O)=O)cc1 | 8960 nM |  |
| Cc1ccc(S(=O)(=O)Nc2ccc(/C(=C\n3cnc(-c4cc(C(F)(F)F)cc(C(F)(F)F)c4)n3)C(N)=O)cc2)cc1 | 2750 nM |  |

Stronger by IC50 (MM1.S), values ahead:

| IC50 (MM1.S) | SMILES | other results |
| --- | --- | --- |
| 194 nM | NC(=O)/C(=C/n1cnc(-c2cc(C(F)(F)F)cc(C(F)(F)F)c2)n1)c1cccnc1 |  |
| 337 nM | NC(=O)/C(=C/n1cnc(-c2cc(C(F)(F)F)cc(C(F)(F)F)c2)n1)c1ccc(NS(=O)(=O)c2ccccc2)cc1 |  |
| 64 nM | NC(=O)/C(=C/n1cnc(-c2cc(C(F)(F)F)cc(C(F)(F)F)c2)n1)c1cncnc1 [ELTANEXOR] | IC50 [1]: 287 nM; IC50 [2]: 261 nM; IC50 [3]: 283 nM; IC50 (YT): 103 nM; IC50 (H9): 139 nM; IC50 [4]: 130 nM; IC50 [5]: 334 nM; IC50 (NAMALVA): 93.8 nM |
| 146 nM | CCOC(=O)/C(=C/n1cnc(-c2cc(C(F)(F)F)cc(C(F)(F)F)c2)n1)c1ccc(NS(C)(=O)=O)cc1 |  |
| 271 nM | CS(=O)(=O)Nc1cccc(/C(=C\n2cnc(-c3cc(C(F)(F)F)cc(C(F)(F)F)c3)n2)C(N)=O)c1 |  |
| 363 nM | NC(=O)/C(=C/n1cnc(-c2cc(C(F)(F)F)cc(C(F)(F)F)c2)n1)c1ccc(C(F)(F)F)nc1 |  |
| 118 nM | N#Cc1cncc(/C(=C\n2cnc(-c3cc(C(F)(F)F)cc(C(F)(F)F)c3)n2)C(N)=O)c1 |  |
